From ChEMBL document CHEMBL3244339, “Antitumor 1-(X-aryl)-3,3-dialkyltriazenes. 1. Quantitative structure-activity relationships vs. L1210 leukemia in mice” (J Med Chem, 1978)

Assays:
L1210 = assay: Antitumor activity against mouse L1210 cells allografted in mouse assessed as increase of host lifespan; format: functional
Mus musculus = species: Mus musculus; assay: Toxicity in mouse L1210 cells allografted mouse assessed as mortality up to 5 days; format: organism-based; conditions: l1210, 120 h

CN(C)/N=N/c1ccc([N+](=O)[O-])cc1C(N)=O
log(1/C) (L1210): 3.26

COC(=O)c1ccccc1/N=N/N(C)CC(C)C
log(1/C) (L1210): 3.12

CCCCCCCCN(C)/N=N/c1ccc(C(N)=O)cc1
log(1/C) (L1210): 2.84

COC(=O)c1n[nH]c(C(C)C)c1/N=N/N(C)C
log(1/C) (L1210): 3.3

CCCCCN(C)/N=N/c1nc[nH]c1C(N)=O
log(1/C) (L1210): 3.58

CN(C)/N=N/c1cccnc1
log(1/C) (L1210): 3.46

CON(C)/N=N/c1ccc(C(N)=O)cc1
Activity (Mus musculus): Toxic

COC(=O)c1cccc(/N=N/N(C)C)c1
log(1/C) (L1210): 3.42

CN(CCO)/N=N/c1ccccc1Cl
Activity (Mus musculus): Toxic

CCCc1nc(/N=N/N(C)C)c(C(N)=O)[nH]1
log(1/C) (L1210): 3.42

CN(C)/N=N/c1ccc(C(N)=O)cc1C(N)=O
log(1/C) (L1210): 3.27

CCOC(=O)CCCc1ccc(/N=N/N(C)C)cc1
log(1/C) (L1210): 3.54

COc1ccc(/N=N/N(C)C(=O)c2ccccc2)cc1
log(1/C) (L1210): 3.05

CCOC(=O)c1ccc(/N=N/N(C)CC(C)C)cc1
log(1/C) (L1210): 2.8

CN(C)/N=N/c1c[nH]nc1C(N)=O
log(1/C) (L1210): 3.42

CC(C)CN(C)/N=N/c1nc[nH]c1C(N)=O
log(1/C) (L1210): 3.51

CCCN(C)/N=N/c1n[nH]cc1C(N)=O
log(1/C) (L1210): 3.7

CN(C)/N=N/c1ccc(Cl)cc1C(N)=O
Activity (Mus musculus): Toxic

CN(C)/N=N/c1ccc(Cl)cc1
Activity (Mus musculus): Toxic

CN(C)/N=N/c1ccc(C(F)(F)F)cc1
Activity (Mus musculus): Toxic

Cc1cccc(/N=N/N(C)C)c1
log(1/C) (L1210): 3.4

CCOC(=O)c1[nH]c(-c2ccccc2)nc1/N=N/N(C)C
log(1/C) (L1210): 3.48

CN(C)/N=N/c1ccc(NC=O)cc1
log(1/C) (L1210): 3.85

COc1ccc(CN(C)/N=N/c2ccc(C#N)cc2)cc1
log(1/C) (L1210): 2.72

CN(C)/N=N/c1c(F)cccc1F
log(1/C) (L1210): 3.63

COC(=O)c1ccc(/N=N/N(C)C)cc1
log(1/C) (L1210): 3.2

CC(C)Cc1nc(/N=N/N(C)C)c(C(N)=O)[nH]1
log(1/C) (L1210): 3.53

CN(/N=N/c1nc[nH]c1C(N)=O)c1cccs1
log(1/C) (L1210): 3.87

Cc1nc(/N=N/N(C)C)c(C(N)=O)[nH]1
log(1/C) (L1210): 3.06

CN(C)/N=N/c1ccc(S(N)(=O)=O)cc1C(N)=O
log(1/C) (L1210): 3.32

CN(/N=N/c1ccccc1C(=O)NN)C1CCCCC1
log(1/C) (L1210): 2.99

CCCCOC(=O)c1[nH]cnc1/N=N/N(C)C
log(1/C) (L1210): 3.53

CC(C)N(C)/N=N/c1ccc(C(N)=O)cc1
log(1/C) (L1210): 3.17

CCCCCCCCOC(=O)c1[nH]cnc1/N=N/N(C)C
log(1/C) (L1210): 3.06

CCCCCCCCN(C)/N=N/c1ccc(Cl)cc1C(=O)O
log(1/C) (L1210): 3.14

CCCCN(C)/N=N/c1ccc([N+](=O)[O-])cc1C(N)=O
log(1/C) (L1210): 3.08

C#CCN(C)/N=N/c1nc[nH]c1C(N)=O
log(1/C) (L1210): 3.61

CN(/N=N/c1ccccc1C(=O)O)C1CCCCC1
Activity (Mus musculus): Toxic

CN(C)/N=N/c1ccc(C#N)cc1C(N)=O
log(1/C) (L1210): 3.46

CCCN(C)/N=N/c1nc[nH]c1C(N)=O
log(1/C) (L1210): 3.58

CCCN(C)/N=N/c1ccccc1C(N)=O
log(1/C) (L1210): 3.26

CN(C)/N=N/c1c(Cl)cc(Cl)cc1C(N)=O
log(1/C) (L1210): 3.14

C=CCN(C)/N=N/c1n[nH]cc1C(N)=O
log(1/C) (L1210): 3.77

CN(C)/N=N/c1ccc(CCCC(=O)NN)cc1
log(1/C) (L1210): 3.6

CCOC(=O)c1[nH]cnc1/N=N/N(C)CCO
log(1/C) (L1210): 3.38

CN(CCc1ccccc1)/N=N/c1nc[nH]c1C(N)=O
log(1/C) (L1210): 3.49

CCN(C)/N=N/c1ccc(C(N)=O)cc1
log(1/C) (L1210): 3.66

CN(C)/N=N/c1ccc([N+](=O)[O-])cc1
Activity (Mus musculus): Toxic

CN(C)/N=N/c1ccccc1[N+](=O)[O-]
log(1/C) (L1210): 3.28

CN(C)/N=N/c1[nH]cnc1C(N)=O [DACARBAZINE]
log(1/C) (L1210): 3.29
